# In patent US20240269139A1, “COMPOUNDS FOR TARGETED PROTEIN DEGRADATION OF KINASES” (DANA-FARBER CANCER INSTITUTE, INC., priority 2020, published 2024):
# Like-named read-outs stand apart in the source and are kept apart here.
# Experiments:
# Assay type in all cases: cell-based
# [1] = molecular target: T1, protein kinases (human kinome) (Homo sapiens, UniProt Q6PHR2); settings: for logFC ULK3: ULK3 (Q6PHR2-1)
# T1 sequence (Q6PHR2 1-472): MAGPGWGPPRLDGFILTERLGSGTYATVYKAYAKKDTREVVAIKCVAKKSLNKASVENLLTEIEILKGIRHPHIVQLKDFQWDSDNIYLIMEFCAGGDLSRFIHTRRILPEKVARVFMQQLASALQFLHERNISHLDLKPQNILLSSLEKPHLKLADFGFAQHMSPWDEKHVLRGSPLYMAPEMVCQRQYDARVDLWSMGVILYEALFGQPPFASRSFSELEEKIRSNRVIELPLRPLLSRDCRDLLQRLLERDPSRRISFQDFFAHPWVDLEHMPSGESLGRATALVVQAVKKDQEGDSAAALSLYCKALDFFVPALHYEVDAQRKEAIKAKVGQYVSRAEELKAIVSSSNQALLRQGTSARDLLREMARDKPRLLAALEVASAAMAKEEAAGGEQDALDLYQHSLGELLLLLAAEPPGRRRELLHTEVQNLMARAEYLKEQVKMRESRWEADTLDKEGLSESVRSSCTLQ
# [2] = molecular target: protein kinases (human kinome) (Homo sapiens, UniProt Q13164); settings: MAPK7 (Q13164-1)
# Chain of protein kinases (human kinome) (Homo sapiens, UniProt Q13164) (Q13164 whole entry): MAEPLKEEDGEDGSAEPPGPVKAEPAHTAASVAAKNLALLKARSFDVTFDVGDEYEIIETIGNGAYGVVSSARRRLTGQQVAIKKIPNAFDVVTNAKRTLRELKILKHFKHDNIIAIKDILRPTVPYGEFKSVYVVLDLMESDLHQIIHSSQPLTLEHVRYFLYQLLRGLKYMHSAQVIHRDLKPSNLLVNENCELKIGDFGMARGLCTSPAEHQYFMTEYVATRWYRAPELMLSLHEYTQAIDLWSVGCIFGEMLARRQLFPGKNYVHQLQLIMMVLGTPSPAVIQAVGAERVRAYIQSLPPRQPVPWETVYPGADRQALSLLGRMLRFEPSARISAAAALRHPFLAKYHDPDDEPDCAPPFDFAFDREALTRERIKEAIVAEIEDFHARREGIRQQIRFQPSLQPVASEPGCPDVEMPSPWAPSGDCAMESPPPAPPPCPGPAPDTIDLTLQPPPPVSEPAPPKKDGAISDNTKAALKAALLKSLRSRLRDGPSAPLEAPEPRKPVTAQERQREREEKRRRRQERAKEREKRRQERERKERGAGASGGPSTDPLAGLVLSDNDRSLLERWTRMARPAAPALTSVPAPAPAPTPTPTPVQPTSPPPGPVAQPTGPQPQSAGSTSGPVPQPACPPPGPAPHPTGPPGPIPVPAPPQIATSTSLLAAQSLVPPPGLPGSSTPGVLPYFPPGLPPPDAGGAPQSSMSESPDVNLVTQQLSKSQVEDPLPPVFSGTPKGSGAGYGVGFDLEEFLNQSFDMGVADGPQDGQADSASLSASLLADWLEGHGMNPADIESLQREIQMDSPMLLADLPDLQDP
# [3] = molecular target: protein kinases (human kinome) (Homo sapiens, UniProt P49137)
# Chain of protein kinases (human kinome) (Homo sapiens, UniProt P49137) (P49137 whole entry): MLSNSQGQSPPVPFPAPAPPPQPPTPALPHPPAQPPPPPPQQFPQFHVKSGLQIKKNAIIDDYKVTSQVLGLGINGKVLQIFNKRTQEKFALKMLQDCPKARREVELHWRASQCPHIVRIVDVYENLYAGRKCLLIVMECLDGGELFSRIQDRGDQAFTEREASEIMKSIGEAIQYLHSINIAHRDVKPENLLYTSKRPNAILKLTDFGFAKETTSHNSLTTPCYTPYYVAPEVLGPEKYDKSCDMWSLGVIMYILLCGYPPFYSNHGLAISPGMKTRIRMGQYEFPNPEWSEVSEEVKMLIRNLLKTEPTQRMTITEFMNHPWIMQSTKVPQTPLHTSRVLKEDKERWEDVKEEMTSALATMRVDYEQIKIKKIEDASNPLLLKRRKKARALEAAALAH
# [4] = molecular target: protein kinases (human kinome) (Homo sapiens, UniProt Q9NYL2)
# Chain of protein kinases (human kinome) (Homo sapiens, UniProt Q9NYL2) (Q9NYL2 whole entry): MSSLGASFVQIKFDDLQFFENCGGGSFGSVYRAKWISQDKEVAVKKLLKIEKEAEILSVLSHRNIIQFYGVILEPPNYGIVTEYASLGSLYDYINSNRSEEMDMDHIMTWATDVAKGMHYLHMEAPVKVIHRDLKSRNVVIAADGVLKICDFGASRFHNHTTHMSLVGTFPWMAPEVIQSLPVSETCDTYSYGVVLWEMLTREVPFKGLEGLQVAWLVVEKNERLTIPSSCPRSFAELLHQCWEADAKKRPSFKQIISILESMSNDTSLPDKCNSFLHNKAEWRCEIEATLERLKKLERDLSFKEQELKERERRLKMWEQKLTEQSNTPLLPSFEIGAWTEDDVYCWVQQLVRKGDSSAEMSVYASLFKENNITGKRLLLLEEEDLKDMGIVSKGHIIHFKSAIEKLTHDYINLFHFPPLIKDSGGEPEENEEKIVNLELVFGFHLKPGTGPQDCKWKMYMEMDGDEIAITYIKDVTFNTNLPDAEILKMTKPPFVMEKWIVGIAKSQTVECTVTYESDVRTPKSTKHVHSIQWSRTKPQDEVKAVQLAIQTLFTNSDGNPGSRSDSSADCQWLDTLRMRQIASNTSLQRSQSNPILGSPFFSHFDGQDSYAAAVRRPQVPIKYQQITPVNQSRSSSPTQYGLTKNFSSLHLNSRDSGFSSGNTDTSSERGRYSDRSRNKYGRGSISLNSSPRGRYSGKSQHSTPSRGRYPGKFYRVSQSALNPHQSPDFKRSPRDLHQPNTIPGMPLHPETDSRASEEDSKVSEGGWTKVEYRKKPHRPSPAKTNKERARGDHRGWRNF
# [5] = molecular target: protein kinases (human kinome) (Homo sapiens, UniProt P23443); settings: for logFC: RPS6KB1 (P23443-1)
# Chain of protein kinases (human kinome) (Homo sapiens, UniProt P23443) (P23443 whole entry): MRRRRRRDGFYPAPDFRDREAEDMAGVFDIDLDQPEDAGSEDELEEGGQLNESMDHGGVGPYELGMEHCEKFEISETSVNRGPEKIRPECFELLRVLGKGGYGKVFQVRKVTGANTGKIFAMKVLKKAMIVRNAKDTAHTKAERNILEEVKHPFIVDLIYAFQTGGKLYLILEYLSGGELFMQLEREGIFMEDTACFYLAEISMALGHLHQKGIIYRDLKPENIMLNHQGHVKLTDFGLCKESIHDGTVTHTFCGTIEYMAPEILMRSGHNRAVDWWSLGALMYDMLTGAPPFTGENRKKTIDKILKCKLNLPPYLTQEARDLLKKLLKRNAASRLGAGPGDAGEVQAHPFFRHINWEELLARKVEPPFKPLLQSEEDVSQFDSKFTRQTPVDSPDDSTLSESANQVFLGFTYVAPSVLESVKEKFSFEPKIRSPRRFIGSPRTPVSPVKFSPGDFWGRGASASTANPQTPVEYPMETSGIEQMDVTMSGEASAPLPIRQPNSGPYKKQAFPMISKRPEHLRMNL
# [6] = molecular target: protein kinases (human kinome) (Homo sapiens, UniProt Q9Y2K2)
# Chain of protein kinases (human kinome) (Homo sapiens, UniProt Q9Y2K2) (Q9Y2K2 whole entry): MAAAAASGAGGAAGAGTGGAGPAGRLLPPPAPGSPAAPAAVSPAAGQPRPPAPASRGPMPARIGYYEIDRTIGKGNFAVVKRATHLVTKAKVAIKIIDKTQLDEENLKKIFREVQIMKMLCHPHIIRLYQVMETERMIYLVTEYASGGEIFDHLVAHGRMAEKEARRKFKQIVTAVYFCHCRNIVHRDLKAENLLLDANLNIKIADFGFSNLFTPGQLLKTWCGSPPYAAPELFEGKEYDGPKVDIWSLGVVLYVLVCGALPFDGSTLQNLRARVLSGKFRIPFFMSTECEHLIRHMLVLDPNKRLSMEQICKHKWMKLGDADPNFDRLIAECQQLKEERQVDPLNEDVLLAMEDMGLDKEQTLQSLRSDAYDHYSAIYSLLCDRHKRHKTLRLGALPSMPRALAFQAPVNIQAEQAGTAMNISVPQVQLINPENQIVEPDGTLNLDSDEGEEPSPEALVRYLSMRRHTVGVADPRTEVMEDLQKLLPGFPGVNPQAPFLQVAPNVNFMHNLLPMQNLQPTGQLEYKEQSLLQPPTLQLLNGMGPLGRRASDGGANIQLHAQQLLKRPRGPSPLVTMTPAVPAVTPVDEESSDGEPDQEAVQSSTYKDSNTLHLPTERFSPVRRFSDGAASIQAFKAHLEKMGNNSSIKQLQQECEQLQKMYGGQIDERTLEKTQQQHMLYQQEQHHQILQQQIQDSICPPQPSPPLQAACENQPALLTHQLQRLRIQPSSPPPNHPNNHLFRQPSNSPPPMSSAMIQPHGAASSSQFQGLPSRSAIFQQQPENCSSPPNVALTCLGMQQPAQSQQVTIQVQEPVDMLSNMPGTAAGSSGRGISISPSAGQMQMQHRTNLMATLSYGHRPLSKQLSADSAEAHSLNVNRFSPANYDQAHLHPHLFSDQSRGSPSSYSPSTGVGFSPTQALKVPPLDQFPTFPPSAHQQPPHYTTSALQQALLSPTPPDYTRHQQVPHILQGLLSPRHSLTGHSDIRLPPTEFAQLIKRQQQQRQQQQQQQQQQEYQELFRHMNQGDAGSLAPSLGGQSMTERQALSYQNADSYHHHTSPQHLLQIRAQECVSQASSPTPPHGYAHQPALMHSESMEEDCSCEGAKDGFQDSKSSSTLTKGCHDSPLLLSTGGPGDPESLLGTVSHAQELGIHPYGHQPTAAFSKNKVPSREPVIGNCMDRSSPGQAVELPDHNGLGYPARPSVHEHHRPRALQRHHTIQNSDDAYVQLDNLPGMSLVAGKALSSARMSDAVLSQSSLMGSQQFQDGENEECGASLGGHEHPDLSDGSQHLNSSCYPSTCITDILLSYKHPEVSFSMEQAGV
# [7] = Accession P49137, experiment wp168, direction down
# [8] = MAPKAPK2 (P49137), experiment wp168
# [9] = MAP3K20 Q9NYL2; experiment wp168
smiles,measurement,setting,value
CC(C)S(=O)(=O)c1ccccc1Nc1nc(Nc2ccc(N3CCN(CCOCCOCCC(=O)NCCNc4cccc5c4CN(C4CCC(=O)NC4=O)C5=O)CC3)cc2)ncc1Cl (stereo not drawn) [TL13.97],logFC ULK3,[1]; experiment wp137,−0.3729
same,logFC ULK3 (Q6PHR2-1),[1]; experiment wp137,−0.3729
CS(=O)(=O)Nc1cccc(-c2csc3cnc(Nc4ccc(N5CCN(CCOCCOCCOc6cccc7c6C(=O)N(C6CCC(=O)NC6=O)C7=O)CC5)cc4)nc23)c1 (stereo not drawn) [RSS0628],logFC ULK3,[1]; experiment wp045,−1.086
same,logFC ULK3 (Q6PHR2-1),[1]; experiment wp045,−1.086
CNC(=O)c1ccccc1Nc1cc(Nc2ccc(N3CCN(CCOCCOCCNC(=O)CNc4cccc5c4C(=O)N(C4CCC(=O)NC4=O)C5=O)CC3)cc2OC)ncc1C(F)(F)F (stereo not drawn) [MFH.5.103.1],logFC,[2]; experiment wp076,−0.4142
same,logFC,"[2]; experiment wp076, direction down",−0.4142
Cc1ncsc1-c1ccc([C@H](C)NC(=O)[C@@H]2C[C@@H](O)CN2C(=O)[C@@H](NC(=O)CCOCCOCCN2CCN(c3ccc(Nc4ncc(Cl)c(Nc5ccccc5S(=O)(=O)C(C)C)n4)cc3)CC2)C(C)(C)C)cc1 [FMF.06.098.1],logFC,[2]; experiment wp108,−0.4347
same,logFC,"[2]; experiment wp108, direction down",−0.4347
same,logFC,[2]; experiment wp131,−0.4637
same,logFC,"[2]; experiment wp131, direction down",−0.4637
"CS(=O)(=O)Nc1cccc(-c2csc3cnc(Nc4ccc(N5CCN(CCCCCOc6cccc7c6C(=O)N(C6CCC(=O)NC6=O)C7=O)CC5)cc4)nc23)c1 (stereo not drawn) [DB0614, N-(3-(2-((4-(4-(5-((2-(2,6-Dioxopiperidin-3-yl)-1,3-dioxoisoindolin-4-yl)oxy)pentyl)piperazin-1-yl)phenyl)amino)thieno[3,2-d]pyrimidin-7-yl)phenyl)methanesulfonamide]",logFC ULK3,[1]; experiment wp045,−0.9461
same,logFC ULK3,[1]; experiment wp117,−0.8307
same,logFC ULK3 (Q6PHR2-1),[1]; experiment wp045,−0.9461
same,logFC ULK3 (Q6PHR2-1),[1]; experiment wp117,−0.8307
Cc1ccc(NC(=O)c2cccc(C(F)(F)F)c2)cc1N1Cc2cnc(Nc3ccc(N4CCN(CCCOc5cccc6c5C(=O)N(C5CCC(=O)NC5=O)C6=O)CC4)nc3)nc2N(C)C1=O (stereo not drawn) [DB0662],logFC MAPKAPK2,[3]; [7],−0.331
same,logFC MAPKAPK2,[3]; [8],−0.331
same,logFC MAP3K20,[4]; [9],−0.737
CC(C)S(=O)(=O)c1ccccc1Nc1nc(Nc2ccc(N3CCN(CCOCCOCCNC(=O)CNc4cccc5c4C(=O)N(C4CCC(=O)NC4=O)C5=O)CC3)cc2)ncc1Cl (stereo not drawn) [TL12.186],logFC,[2]; experiment wp137,−0.3334
same,logFC,"[2]; experiment wp137, direction down",−0.3334
same,logFC ULK3,[1]; experiment wp131,−1.074
same,logFC ULK3,[1]; experiment wp137,−1.174
same,logFC ULK3 (Q6PHR2-1),[1]; experiment wp131,−1.074
same,logFC ULK3 (Q6PHR2-1),[1]; experiment wp137,−1.174
CC(C)(C)c1nc(-c2cccc(NS(=O)(=O)c3c(F)cccc3F)c2F)c(-c2ccnc(NCCOCCNC(=O)CCOCCOCCNc3cccc4c3C(=O)N(C3CCC(=O)NC3=O)C4=O)n2)s1 (stereo not drawn) [DD.03.106],logFC MAP3K20 (Q9NYL2),"[4]; Experiment wp147, 2 uM",−0.4079
same,logFC MAP3K20,"[4]; MAP3K20 Q9NYL2; experiment wp147, 2 uM",−0.4079
"Cc1ccc(NC(=O)c2cccc(C(F)(F)F)c2)cc1N1Cc2cnc(Nc3ccc(N4CCN(Cc5cn(CCCCCOc6cccc7c6C(=O)N(C6CCC(=O)NC6=O)C7=O)nn5)CC4)nc3)nc2N(C)C1=O (stereo not drawn) [DB0646, N-(3-(7-((6-(4-((1-(5-((2-(2,6-Dioxopiperidin-3-yl)-1,3-dioxoisoindolin-4-yl)oxy)pentyl)-1H-1,2,3-triazol-4-yl)methyl)piperazin-1-v)pyridin-3-yl)amino)-1-methyl-2-oxo-1,4-dihydropyrimido[4,5-d]pyrimidin-3(2H)-yl)-4-methylphenyl)-3-(trifluoromethyl)benzamide]",logFC MAPKAPK2,"[3]; Accession P49137, experiment wp045, direction down",−0.4334
same,logFC MAPKAPK2,"[3]; Accession P49137, experiment wp105, direction down",−0.4562
same,logFC MAPKAPK2,"[3]; Accession P49137, experiment wp107, direction down",−0.3734
same,logFC MAPKAPK2,"[3]; Accession P49137, experiment wp114, direction down",−0.4911
same,logFC MAPKAPK2,"[3]; Accession P49137, experiment wp117, direction down",−0.4333
same,logFC MAPKAPK2,"[3]; Accession P49137, experiment wp152, direction down",−0.4223
same,logFC MAPKAPK2,"[3]; Accession P49137, experiment wp160, 4 hr, direction down",−0.3444
same,logFC MAPKAPK2,"[3]; Accession P49137, experiment wp160, 8 hr, direction down",−0.6227
same,logFC MAPKAPK2,"[3]; Accession P49137, experiment wp172, direction down",−0.3294
same,logFC MAPKAPK2,"[3]; MAPKAPK2 (P49137), experiment wp045",−0.4334
same,logFC MAPKAPK2,"[3]; MAPKAPK2 (P49137), experiment wp105",−0.4562
same,logFC MAPKAPK2,"[3]; MAPKAPK2 (P49137), experiment wp107",−0.3734
same,logFC MAPKAPK2,"[3]; MAPKAPK2 (P49137), experiment wp114",−0.4911
same,logFC MAPKAPK2,"[3]; MAPKAPK2 (P49137), experiment wp117",−0.4333
same,logFC MAPKAPK2,"[3]; MAPKAPK2 (P49137), experiment wp152",−0.4223
same,logFC MAPKAPK2,"[3]; MAPKAPK2 (P49137), experiment wp160, 4 hr",−0.3444
same,logFC MAPKAPK2,"[3]; MAPKAPK2 (P49137), experiment wp160, 8 hr",−0.6227
same,logFC MAPKAPK2,"[3]; MAPKAPK2 (P49137), experiment wp172",−0.3294
same,logFC MAP3K20 (Q9NYL2),[4]; Experiment wp045,−0.4248
same,logFC MAP3K20 (Q9NYL2),[4]; Experiment wp107,−0.53
same,logFC MAP3K20 (Q9NYL2),"[4]; Experiment wp160, 2 hr",−0.3293
same,logFC MAP3K20,[4]; MAP3K20 Q9NYL2; experiment wp045,−0.4248
same,logFC MAP3K20,[4]; MAP3K20 Q9NYL2; experiment wp107,−0.53
same,logFC MAP3K20,[4]; MAP3K20 Q9NYL2; experiment wp152,−0.6556
same,logFC MAP3K20,"[4]; MAP3K20 Q9NYL2; experiment wp160, 2 hr",−0.3293
same,logFC MAP3K20,"[4]; MAP3K20 Q9NYL2; experiment wp160, 4 hr",−0.6192
same,logFC MAP3K20,"[4]; MAP3K20 Q9NYL2; experiment wp160, 8 hr",−0.9197
same,logFC MAP3K20,[4]; MAP3K20 Q9NYL2; experiment wp160; 4 hr,−0.6192
same,logFC MAP3K20,[4]; MAP3K20 Q9NYL2; experiment wp160; 8 hr,−0.9197
same,logFC MAP3K20,[4]; MAP3K20 Q9NYL2; experiment wp172,−0.3864
same,logFC MAP3K20 (Q9NYL2),[4]; experiment wp152,−0.6556
"Cc1ncsc1-c1ccc([C@H](C)NC(=O)[C@@H]2C[C@@H](O)CN2C(=O)[C@@H](NC(=O)CCCCCN2CCN(c3ccc(Nc4ncc5scc(-c6cccc(NS(C)(=O)=O)c6)c5n4)cc3)CC2)C(C)(C)C)cc1 [RSS0680, (2S,4R)-1-((S)-3,3-Dimethyl-2-(6-(4-(4-((7-(3-(methylsulfonamido)phenyl)thieno[3,2-d]pyrimidin-2-yl)amino)phenyl)piperazin-1-yl)hexanamido)butanoyl)-4-hydroxy-N—((S)-1-(4-(4-methylthiazol-5yl)phenyl)ethyl)pyrrolidine-2-carboxamide]",logFC of RPS6KB1 (P23443-1),[5]; Experiment wp117,−0.3893
same,logFC,[5]; experiment wp080,−0.4358
same,logFC,[5]; experiment wp117,−0.3893
same,logFC of RPS6KB1 (P23443-1),[5]; experiment wp080,−0.4358
CC(C)S(=O)(=O)c1ccccc1Nc1nc(Nc2ccc(N3CCN(CCOCCNC(=O)CNc4cccc5c4C(=O)N(C4CCC(=O)NC4=O)C5=O)CC3)cc2)ncc1Cl (stereo not drawn) [SK.3.91],logFC,"[2]; experiment wp016, 1 uM",−0.3924
same,logFC,"[2]; experiment wp016, 1 uM, direction down",−0.3924
same,logFC ULK3 (Q6PHR2-1),"[1]; Experiment wp160, 2 hr",−0.503
same,logFC ULK3 (Q6PHR2-1),[1]; Experiment wp172,−0.8151
same,logFC ULK3,"[1]; experiment wp016, 1 uM",−1.03
same,logFC ULK3,[1]; experiment wp103,−0.9651
same,logFC ULK3,[1]; experiment wp105,−0.837
same,logFC ULK3,"[1]; experiment wp133, 2 hr",−0.5817
same,logFC ULK3,"[1]; experiment wp133, 4 hr",−1.062
same,logFC ULK3,"[1]; experiment wp160, 2 hr",−0.503
same,logFC ULK3,"[1]; experiment wp160, 4 hr",−0.9689
same,logFC ULK3,[1]; experiment wp172,−0.8151
same,logFC ULK3 (Q6PHR2-1),"[1]; experiment wp016, 1 uM",−1.03
same,logFC ULK3 (Q6PHR2-1),[1]; experiment wp103,−0.9651
same,logFC ULK3 (Q6PHR2-1),[1]; experiment wp105,−0.837
same,logFC ULK3 (Q6PHR2-1),"[1]; experiment wp133, 2 hr",−0.5817
same,logFC ULK3 (Q6PHR2-1),"[1]; experiment wp133, 4 hr",−1.062
same,logFC ULK3 (Q6PHR2-1),"[1]; experiment wp160, 4 hr",−0.9689
same,logFC of RPS6KB1 (P23443-1),[5]; Experiment wp107,−0.4197
same,logFC,[5]; experiment wp107,−0.4197
Cc1ccc(NC(=O)c2cccc(C(F)(F)F)c2)cc1N1Cc2cnc(Nc3ccc(N4CCN(CCCCC(=O)N[C@H](C(=O)N5C[C@H](O)C[C@H]5C(=O)N[C@@H](C)c5ccc(-c6scnc6C)cc5)C(C)(C)C)CC4)nc3)nc2N(C)C1=O [DB1113],logFC,[2]; experiment wp168,−0.766
same,logFC,"[2]; experiment wp168, direction down",−0.766
same,logFC MAPKAPK2,[3]; [7],−3.201
same,logFC MAPKAPK2,[3]; [8],−3.201
same,logFC of SIK3 (Q9Y2K2),[6]; Experiment wp168,−1.602
same,logFC,"[6]; SIK3 (Q9Y2K2), experiment wp168",−1.602
same,logFC MAP3K20,[4]; [9],−1.38
